Laboratory results as given in patent US8263590B2, “Pyrimidine derivatives” (priority 2003, dated 2012).
Like-named read-outs stand apart in the source and are kept apart here.

What was measured:
[1] = system: Jurkat T human leukemic cell line; experiment: In vitro T cell migration assay; type: cell-based
Protocol: Inhibitory activities of FAK inhibitors on the mobility of immune cells are secured by the following in vitro study. […] Cell mobility is appraised through the number of cells migrated into lower chamber by labeling with calcein-AM (Molecular Probes, Netherlands) at 8 μg/ml in HBSS for 1 h.

FAK (Tyr397) = FAK (Tyr397) (Mus musculus, UniProt P34152); experiment: Phosphorylation levels of FAK at Tyr397 (sandwich ELISA, 4T1 cells)
Protocol: Phosphorylation levels of FAK at Tyr397 is quantified by the sandwich ELISA. Mouse mammary carcinoma 4T1 cells (1×10^5) are plated in wells of 96-well culture plates and incubated with or without various concentrations of inhibitors for 1 h in Dulbecco's modified eagle medium containing 0.5% BSA. The medium is removed and cells are lysed in 200 μL 50 mM Tris-HCl, pH 7.4, containing 1% NP-40, 0.25% sodium deoxycholate, 150 mM NaCl, 1 mM EDTA, 1 mM PMSF, 1 mM Na3VO4, 1 mM NaF, 1 μg/mL aprotinin, 1 μg/mL leupeptin and 1 μg/mL pepstatin. […] The concentration of compound causing 50% reduction of phosphorylation level of FAK is determined.

[2] = system: Mouse mammary carcinoma 4T1 cells; experiment: Anchorage-independent tumor cell growth assay; type: cell-based
Protocol: Cells are cultured for 2 h and inhibitors are added at various concentrations in a final concentration of 0.1% DMSO. After 48 h, cell growth is assayed with the cell counting kit-8 (Wako Pure Chemical), which uses a water soluble tetrazolium salt WST8. Twenty μL of the reagent is added into each well and cells are further cultured for 2 h. The optical density is measured at 450 nm.

human FAK kinase domain = human FAK kinase domain (Homo sapiens, UniProt Q05397); experiment: FAK assay (FRET, Biot-Y397 peptide)
Protocol: All steps are performed in a 96-well black microtiter plate. […] The enzyme reaction is started by addition of 5 μL of 5 μM ATP in water and the mixture is incubated for 3 hours at 37° C. […] The results are shown as percent inhibition of enzyme activity. […] IC50 values are determined by non-linear curve fit analysis using the OriginPro 6.1 program (OriginLab).

human IGF-IR = target: T1, human IGF-IR (Homo sapiens, UniProt P08069); experiment: IGF-I induced IGF-IR autophosphorylation, cellular Capture ELISA; type: cell-based; settings: read-out: IGF-1R IC50
T1 construct: transfected with human IGF-IR cDNA (complete human IGF-IR cDNA); expressed in transfected cells; host or cells: NIH-3T3 mouse fibroblasts
Protocol: In this assay the activity of the compounds of the invention against Insulin-like growth factor I (IGF-I) induced autophosphorylation of the IGF-IR is determined.
The cells which overexpress human IGF-IR are cultured in Dulbecco's minimal essential (DMEM) medium, containing 10% Fetal Calf Serum (FCS). […] On day 3 the medium is discarded and the cells are incubated for 24 h in minimal medium (DMEM, containing 0.5% FCS).
The medium is discarded and the cells are washed twice with PBS/O (=Phosphate-Buffered Saline without CaCl2) and lysed for 15 min on ice with 50 μl/well RIPA-buffer [50 mM Tris.HCl, pH=7.2, 120 mM NaCl, 1 mM EDTA, 6 mM EGTA, 1% NP-40, 20 mM NaF, 1 mM benzamidine, 15 mM sodium pyrophosphate, 1 mM Phenyl methyl sulphonyl fluoride (PMSF) and 0.5 mM Na3VO4] and shaken for 10 min using a 96-well plate shaker (=cellular extracts).
The plates are washed twice with 0.05% (v/v) Tween-20 in Phosphate-Buffered Saline (PBS) and once with nanopure H2O. […] After blocking, the plates are washed once with nanopure H2O.
After incubating the extracts and the secondary antibody for 2 h at 4° C., the extracts are discarded, the plates are washed twice with 0.05% (v/v) Tween-20 in PBS and once with nanopure water.
90 μl/well AP substrate (CDP-Star; obtained from Tropix; Cat. No.: MS100RY) are then added and the plates are incubated for 45 min at RT in the dark, followed by measuring AP activity in a Packard Top Count Microplate Scintillation Counter. The IC50 values for the compounds of formula I are calculated via linear regression analysis using the GraphPad Instat program (GraphPad Software, USA).

human FAK kinase domain, sequence (Q05397 384-706): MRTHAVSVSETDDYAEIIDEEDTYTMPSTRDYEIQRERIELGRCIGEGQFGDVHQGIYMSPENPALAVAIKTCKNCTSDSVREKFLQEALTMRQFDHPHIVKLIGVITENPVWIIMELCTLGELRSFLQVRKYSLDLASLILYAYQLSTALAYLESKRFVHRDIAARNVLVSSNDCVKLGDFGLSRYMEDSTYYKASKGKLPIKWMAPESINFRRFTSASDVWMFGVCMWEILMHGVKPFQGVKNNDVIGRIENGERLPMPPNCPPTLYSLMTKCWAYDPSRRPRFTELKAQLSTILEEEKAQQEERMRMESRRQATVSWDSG
FAK (Tyr397), sequence (P34152 whole entry): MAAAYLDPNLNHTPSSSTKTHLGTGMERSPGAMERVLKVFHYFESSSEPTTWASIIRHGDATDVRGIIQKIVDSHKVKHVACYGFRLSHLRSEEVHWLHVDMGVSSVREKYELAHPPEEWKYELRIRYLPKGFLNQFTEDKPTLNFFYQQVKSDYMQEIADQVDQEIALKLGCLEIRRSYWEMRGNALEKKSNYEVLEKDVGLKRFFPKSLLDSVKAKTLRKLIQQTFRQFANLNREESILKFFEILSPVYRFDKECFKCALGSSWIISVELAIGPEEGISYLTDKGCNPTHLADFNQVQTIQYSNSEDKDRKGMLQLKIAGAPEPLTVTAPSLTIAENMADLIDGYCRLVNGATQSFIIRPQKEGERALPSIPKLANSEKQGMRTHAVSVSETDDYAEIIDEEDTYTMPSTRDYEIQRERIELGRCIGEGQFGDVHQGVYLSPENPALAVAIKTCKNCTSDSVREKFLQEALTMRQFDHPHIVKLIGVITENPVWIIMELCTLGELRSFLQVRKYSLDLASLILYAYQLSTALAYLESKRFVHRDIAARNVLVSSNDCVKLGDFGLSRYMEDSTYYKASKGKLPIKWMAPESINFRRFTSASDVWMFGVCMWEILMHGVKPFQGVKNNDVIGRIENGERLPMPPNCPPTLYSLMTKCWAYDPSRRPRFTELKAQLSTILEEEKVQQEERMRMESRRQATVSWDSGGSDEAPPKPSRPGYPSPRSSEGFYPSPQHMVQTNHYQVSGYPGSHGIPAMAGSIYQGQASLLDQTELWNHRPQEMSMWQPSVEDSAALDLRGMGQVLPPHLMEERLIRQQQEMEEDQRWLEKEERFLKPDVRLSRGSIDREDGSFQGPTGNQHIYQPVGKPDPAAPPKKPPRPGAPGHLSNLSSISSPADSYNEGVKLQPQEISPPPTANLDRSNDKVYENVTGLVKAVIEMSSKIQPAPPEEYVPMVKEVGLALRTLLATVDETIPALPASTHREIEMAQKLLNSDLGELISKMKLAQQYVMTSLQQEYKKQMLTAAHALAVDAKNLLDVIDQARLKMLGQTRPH
T1 sequence (P08069 31-1367): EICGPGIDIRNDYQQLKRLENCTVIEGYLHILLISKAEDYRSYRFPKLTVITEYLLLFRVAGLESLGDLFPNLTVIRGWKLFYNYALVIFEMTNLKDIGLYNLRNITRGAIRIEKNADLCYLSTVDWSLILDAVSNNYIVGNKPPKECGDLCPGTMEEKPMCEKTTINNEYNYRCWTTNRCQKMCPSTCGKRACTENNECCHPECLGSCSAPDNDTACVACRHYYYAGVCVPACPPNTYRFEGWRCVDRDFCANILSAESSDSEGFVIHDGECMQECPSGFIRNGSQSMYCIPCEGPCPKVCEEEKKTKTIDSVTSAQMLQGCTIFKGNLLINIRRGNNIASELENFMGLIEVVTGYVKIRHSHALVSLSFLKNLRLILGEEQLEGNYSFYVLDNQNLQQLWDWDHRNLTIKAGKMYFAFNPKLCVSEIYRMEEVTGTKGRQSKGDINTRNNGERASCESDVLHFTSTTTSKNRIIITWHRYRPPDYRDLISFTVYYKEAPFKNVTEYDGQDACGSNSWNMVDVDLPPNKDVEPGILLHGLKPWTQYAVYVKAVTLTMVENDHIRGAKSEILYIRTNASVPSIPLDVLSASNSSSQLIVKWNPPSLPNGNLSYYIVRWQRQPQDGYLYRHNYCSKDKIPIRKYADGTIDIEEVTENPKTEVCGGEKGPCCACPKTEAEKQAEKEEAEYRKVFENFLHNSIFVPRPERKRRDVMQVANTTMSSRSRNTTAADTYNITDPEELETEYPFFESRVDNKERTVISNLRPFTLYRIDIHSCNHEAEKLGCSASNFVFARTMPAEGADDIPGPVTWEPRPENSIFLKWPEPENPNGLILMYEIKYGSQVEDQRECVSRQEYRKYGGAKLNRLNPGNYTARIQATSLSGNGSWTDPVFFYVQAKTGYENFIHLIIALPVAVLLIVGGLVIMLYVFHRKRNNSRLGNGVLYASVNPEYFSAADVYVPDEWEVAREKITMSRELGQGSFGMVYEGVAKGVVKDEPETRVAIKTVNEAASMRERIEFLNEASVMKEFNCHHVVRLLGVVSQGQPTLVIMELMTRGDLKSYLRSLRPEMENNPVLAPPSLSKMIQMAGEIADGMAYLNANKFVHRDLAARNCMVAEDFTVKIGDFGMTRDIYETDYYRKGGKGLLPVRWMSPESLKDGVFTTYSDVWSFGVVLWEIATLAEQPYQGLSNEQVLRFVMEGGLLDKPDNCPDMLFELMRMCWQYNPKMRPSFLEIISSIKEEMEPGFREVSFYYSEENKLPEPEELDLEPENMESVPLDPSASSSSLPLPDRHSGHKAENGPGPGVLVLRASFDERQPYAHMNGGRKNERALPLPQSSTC

| IC50 [1] | Structure (SMILES) | also measured |
| --- | --- | --- |
| 700 nM | CNS(=O)(=O)c1ccccc1Nc1nc(Nc2cc(OC3CCN(C)CC3)ccc2OC)ncc1Br [Example 3-76] |  |
| 290 nM | CNC1CCN(c2ccc(Nc3ncc(Cl)c(Nc4ccccc4S(=O)(=O)NC(C)C)n3)c(OC)c2)C1 (stereo not shown) [Example 19-1] |  |
| 90 nM | CCCS(=O)(=O)c1ccccc1Nc1nc(Nc2ccc(N3CCN(C(C)=O)CC3)cc2OC)ncc1Cl [Example 26-2] |  |
| 130 nM | CNS(=O)(=O)c1ccccc1Nc1nc(Nc2cc(N3CCN(C(C)=O)CC3)ccc2OC)ncc1Br [Example 3-34] |  |
| 600 nM | CCNC(=O)c1ccccc1Nc1nc(Nc2ccc(N3CCOCC3)cc2OC)ncc1Cl [Example 9-1] |  |
| 290 nM | CCCS(=O)(=O)c1ccccc1Nc1nc(Nc2ccc(N3CCC(O)CC3)cc2OC)ncc1Cl [Example 26-4] |  |
|  | CCC(CC)NS(=O)(=O)c1ccccc1Nc1nc(Nc2ccc(OC3CCN(C)C3)cc2OC)ncc1Cl (stereo not shown) [Example 23-7] | IC50 (FAK (Tyr397)): 3000 nM; IC50 ([2]; Mus musculus, 4T1): 840 nM; IC50 (human FAK kinase domain): 2.1 nM |
| 49000 nM | CNS(=O)(=O)c1ccccc1Nc1nc(Nc2ccc(N3CCN(C)CC3)cc2OC)ncc1Cl [Example 20-6] |  |
| 210 nM | CNS(=O)(=O)c1ccccc1Nc1nc(Nc2cc(N(C)C)ccc2OC)ncc1Br [Example 3-64] |  |
| 290 nM | COc1cc(N2CCOCC2)ccc1Nc1ncc(Cl)c(Nc2ccccc2S(=O)(=O)NC(C)C)n1 [Example 19-8] |  |
| 250 nM | CNC(=O)c1ccccc1Nc1nc(Nc2cc(N3CCOCC3)ccc2OC)ncc1Cl [Example 7-6] |  |
| 280 nM | COc1cc(N2CCOCC2)ccc1Nc1ncc(Cl)c(Nc2ccccc2C(=O)N(C)C)n1 [Example 14-1] |  |
| 290 nM | CNS(=O)(=O)c1ccccc1Nc1nc(Nc2ccc(N3CCC(N4CCCCC4)CC3)cc2OC)ncc1Cl [Example 20-8] | IC50 (FAK (Tyr397)): 170 nM; IC50 ([2]; Mus musculus, 4T1): 50 nM; IC50 (human FAK kinase domain): 6.8 nM |
| 40 nM | CNC(=O)c1ccccc1Nc1nc(Nc2ccc(N3CCOCC3)cc2OC)ncc1Cl [Example 7A, 2-[5-Chloro-2-(2-methoxy-4-morpholin-4-yl-phenylamino)-pyrimidin-4-ylamino]-N-methyl-benzamide] |  |
| 1000 nM | COc1cc(N2CCC[C@@H](C(N)=O)C2)ccc1Nc1ncc(Cl)c(Nc2ccccc2S(=O)(=O)C(C)C)n1 [Example 28-28] |  |
| 90 nM | CNS(=O)(=O)c1ccccc1Nc1nc(Nc2ccc(OC3CCN(C)CC3)cc2OC)ncc1Br [Example 3-33] |  |
|  | CCN1CCN(c2ccc(Nc3ncc(Cl)c(Nc4ccccc4S(=O)(=O)C(C)C)n3)c(OC)c2)CC1 [Example 28-12] | IC50 [2]: 430 nM |
| 300 nM | CC(C)NS(=O)(=O)c1ccccc1Nc1nc(Nc2ccc(OC3CCN(C)CC3)cc2F)ncc1Cl [Example 19-28] |  |
|  | CNS(=O)(=O)c1ccccc1Nc1nc(Nc2ccc(-n3ccnc3C)cc2OC)ncc1Br [Example 3-83] | IC50 [2]: 320 nM |
| 300 nM | CNS(=O)(=O)c1ccccc1Nc1nc(Nc2ccc(N3CCN(C(C)=O)CC3)cc2OC)ncc1Br [Example 3-46] |  |
| 630 nM | CCC(CC)NS(=O)(=O)c1ccccc1Nc1nc(Nc2ccc(OC3CCN(C)CC3)cc2OC)ncc1Cl [Example 23-1] |  |
| 1000 nM | CNS(=O)(=O)c1ccccc1Nc1nc(Nc2ccc(N3CCN(C)CC3)cc2OC)ncc1Br [Example 3-39] |  |
| 300 nM | CCNC(=O)c1ccccc1Nc1nc(Nc2ccc(OC3CCN(C)CC3)cc2OC)ncc1Cl [Example 9-6] |  |
| 280 nM | CNS(=O)(=O)c1ccccc1Nc1nc(Nc2cc(N3CCOCC3)ccc2OC)ncc1Br [Example 3-32] |  |
| 580 nM | CNS(=O)(=O)c1ccccc1Nc1nc(Nc2cc(N3CCC(N4CCCCC4)CC3)ccc2OC)ncc1Br [Example 3-69] |  |

| IC50 [1] | Structure (SMILES) | also measured |
| --- | --- | --- |
| 500 nM | CCCS(=O)(=O)c1ccccc1Nc1nc(Nc2ccc(N3CCN(C(C)=O)C(C)(C)C3)cc2OC)ncc1Cl [Example 26-11] |  |
| 1000 nM | CNC(=O)c1ccccc1Nc1nc(Nc2cc(N3CCN(C(C)=O)CC3)ccc2OC)ncc1Cl [Example 7-30] |  |
|  | CCCS(=O)(=O)c1ccccc1Nc1nc(Nc2ccc(C(=O)N3CCOCC3)cc2OC)ncc1Cl [Example 26-20] | IC50 (FAK (Tyr397)): 140 nM; IC50 (human IGF-IR): 490 nM; IC50 (human FAK kinase domain): 10 nM |
|  | CC(C)S(=O)(=O)c1ccccc1Nc1nc(Nc2cccc3c2OCC3)ncc1Cl [Example 28-31] | IC50 [2]: 1060 nM |
| 600 nM | COc1cc(N2CCC(O)CC2)ccc1Nc1ncc(Cl)c(Nc2ccccc2S(=O)(=O)C(C)C)n1 [Example 28-16] |  |
|  | CCCS(=O)(=O)c1ccccc1Nc1nc(Nc2ccc(N3CCN(C(C)C)CC3)cc2OC)ncc1Cl [Example 26-23] | IC50 [2]: 90 nM |
| 750 nM | CNS(=O)(=O)c1ccccc1Nc1nc(Nc2ccc(N3CCN(C(C)=O)CC3)cc2OC)ncc1Cl [Example 20-2] |  |
| 800 nM | CNS(=O)(=O)c1ccccc1Nc1nc(Nc2cc(OCCN3CCOCC3)ccc2OC)ncc1Br [Example 3-35] |  |
| 1000 nM | COc1cc(N2CCOCC2)ccc1Nc1ncc(Cl)c(Nc2ccccc2C(=O)NC(C)C)n1 [Example 14-2] |  |
| 70 nM | COc1cc(N2CCN(C)CC2)ccc1Nc1ncc(Cl)c(Nc2ccccc2S(=O)(=O)NC(C)C)n1 [Example 19-5] | IC50 (human IGF-IR): 470 nM; IC50 ([2]; Mus musculus, 4T1): 670 nM |
|  | CNS(=O)(=O)c1ccccc1Nc1nc(Nc2ccc(OC3CCN(C)C3)cc2OC)ncc1Br (stereo not shown) [Example 3-82] | IC50 (FAK (Tyr397)): 200 nM; IC50 ([2]; Mus musculus, 4T1): 70 nM; IC50 (human FAK kinase domain): 4.8 nM |
|  | CNC(=O)c1cc(N2CCCC2)ccc1Nc1nc(Nc2ccc(N3CCOCC3)cc2OC)ncc1Cl [Example 15-3] | IC50 (FAK (Tyr397)): 2000 nM; IC50 ([2]; Mus musculus, 4T1): 1670 nM; IC50 (human FAK kinase domain): 44 nM |
| 500 nM | COc1cc(N2CCC[C@H](C(N)=O)C2)ccc1Nc1ncc(Cl)c(Nc2ccccc2S(=O)(=O)C(C)C)n1 [Example 28-27] |  |
| 260 nM | CCCS(=O)(=O)c1ccccc1Nc1nc(Nc2cc(N3CCOCC3)ccc2OC)ncc1Cl [Example 26-17] |  |
|  | CCC(C)NS(=O)(=O)c1ccccc1Nc1nc(Nc2ccc(N3CCN(C)CC3)cc2OC)ncc1Cl (stereo not shown) [Example 21-1] | IC50 (human IGF-IR): 470 nM; IC50 ([2]; Mus musculus, 4T1): 190 nM |
|  | CNC(=O)c1ccccc1Nc1nc(Nc2cc(F)ccc2OC)ncc1Br [Example 8-3] | IC50 [2]: 1000 nM |
|  | CCNC(=O)c1ccccc1Nc1nc(Nc2ccc(N3CCC(N4CCCCC4)CC3)cc2OC)ncc1Cl [Example 9-3] | IC50 (FAK (Tyr397)): 100 nM; IC50 ([2]; Mus musculus, 4T1): 370 nM; IC50 (human FAK kinase domain): 18 nM |
| 250 nM | CNS(=O)(=O)c1ccccc1Nc1nc(Nc2ccc(N3CCOCC3)cc2OC)ncc1Cl [Example 20-1] |  |
|  | Cc1cc(N2CCOCC2)ccc1Nc1ncc(Cl)c(Nc2ccccc2S(=O)(=O)C(C)C)n1 [Example 28-6] | IC50 [2]: 560 nM |
| 220 nM | COc1cc(N2CCOCC2)ccc1Nc1ncc(Cl)c(Nc2cccc3c2C(=O)N(C)C3)n1 [Example 12-1, 7-[5-Chloro-2-(2-methoxy-4-morpholin-4-yl-phenylamino)-pyrimidin-4-ylamino]-2-methyl-2,3-dihydro-isoindol-1-one] |  |
|  | COc1cc(OC2CCN(C)CC2)ccc1Nc1ncc(Cl)c(Nc2ccccc2S(=O)(=O)C(C)C)n1 [Example 28-19] | IC50 (FAK (Tyr397)): 500 nM; IC50 ([2]; Mus musculus, 4T1): 140 nM; IC50 (human FAK kinase domain): 3.7 nM |
| 290 nM | COc1cc(N2CCC(N3CCOCC3)CC2)ccc1Nc1ncc(Cl)c(Nc2ccccc2S(=O)(=O)C(C)C)n1 [Example 28-13] |  |
|  | CNS(=O)(=O)c1ccccc1Nc1nc(Nc2ccc(OC3CCN(C)C3)cc2OC)ncc1Cl (stereo not shown) [Example 20-29] | IC50 (FAK (Tyr397)): 200 nM; IC50 (human IGF-IR): 310 nM; IC50 ([2]; Mus musculus, 4T1): 50 nM; IC50 (human FAK kinase domain): 6.1 nM |
|  | CNS(=O)(=O)c1ccccc1Nc1nc(Nc2cccc3c2CCCC3)ncc1Br [Example 3-31] | IC50 [2]: 5000 nM |
| 310 nM | CNC(=O)c1ccccc1Nc1nc(Nc2ccc(N3CCC(NC)C3)cc2OC)ncc1Cl (stereo not shown) [Example 7-12] |  |

| Structure (SMILES) | IC50 [1] | also measured |
| --- | --- | --- |
| CNS(=O)(=O)c1ccccc1Nc1nc(Nc2ccc(N3CCCC(C(N)=O)C3)cc2OC)ncc1Br (stereo not shown) [Example 3-68] | 1000 nM |  |
| COc1cc(N2CCC(N(C)C)C2)ccc1Nc1ncc(Cl)c(Nc2ccccc2S(=O)(=O)NC(C)C)n1 (stereo not shown) [Example 19-9] | 300 nM |  |
